The CheMixHub ionic liquid set

Experiment: xn = mol fraction of the nth substance listed
Conditions: 101 kPa

CCCCCCCCCCCC[N+](C)(C)Cc1ccccc1.[Cl-] + C[C@H](N)C(=O)O + O
electrical conductivity [S/m]
Conditions	293.15 K	298.15 K	303.15 K	308.15 K
x2 = 0.0009017, x1 = 0.000273	0.0801	0.0901	0.101	0.112
x2 = 0.0009017, x1 = 0.0002923	0.0832	0.0935	0.104	0.117
x2 = 0.0009017, x1 = 0.00031	0.0859	0.0967	0.108	0.121
x2 = 0.0009017, x1 = 0.0003245	0.0882	0.0994	0.111	0.124
x2 = 0.0009018, x1 = 0.0001745	0.0636	0.0709	0.0786	0.0867
x2 = 0.0009018, x1 = 0.0002014	0.0686	0.0767	0.0852	0.0943
x2 = 0.0009018, x1 = 0.0002282	0.0731	0.0819	0.0911	0.101
x2 = 0.0009018, x1 = 0.0002515	0.0769	0.0862	0.096	0.107
x2 = 0.0009019, x1 = 5.732e-05	0.0227	0.0255	0.0283	0.0312
x2 = 0.0009019, x1 = 7.956e-05	0.0312	0.0349	0.0388	0.0427
x2 = 0.0009019, x1 = 0.0001004	0.0389	0.0437	0.0484	0.0533
x2 = 0.0009019, x1 = 0.0001231	0.0474	0.053	0.0588	0.0647
x2 = 0.0009019, x1 = 0.0001486	0.0565	0.0633	0.0701	0.077
x2 = 0.001773, x1 = 8.528e-05	0.033	0.037	0.041	0.0452
x2 = 0.001773, x1 = 0.0001054	0.0404	0.0453	0.0502	0.0553
x2 = 0.001773, x1 = 0.0001263	0.0481	0.0538	0.0597	0.0658
x2 = 0.001773, x1 = 0.00015	0.0564	0.063	0.0698	0.077
x2 = 0.001773, x1 = 0.000176	0.063	0.0702	0.0778	0.086
x2 = 0.001773, x1 = 0.0002016	0.0678	0.0756	0.084	0.0932
x2 = 0.001773, x1 = 0.0002266	0.0719	0.0805	0.0896	0.0995
x2 = 0.001773, x1 = 0.0002493	0.0756	0.0847	0.0946	0.105
x2 = 0.001773, x1 = 0.0002699	0.0789	0.0885	0.099	–
x2 = 0.001773, x1 = 0.0002888	0.082	0.0924	0.103	–
x2 = 0.001773, x1 = 0.0003053	0.0849	0.0956	0.107	–
x2 = 0.001773, x1 = 0.0003178	0.0873	0.0979	0.11	–
x2 = 0.001774, x1 = 6.278e-05	0.0246	0.0276	0.0306	0.0337
